Test results: publication PMC11470957, “Principles of paralog-specific targeted protein degradation engaging the C-degron E3 KLHDC2” (Nature Communications, 2024)
Where “and” joins values, the source holds several entries; their conditions need not be identical. Equal values may be shown once.

Experiments:
[1] = target: K291A KLHDC2^SBD / BRD3^BD2 (Homo sapiens, UniProt Q15059+Q9Y2U9, K291A); experiment: ITC, ternary complex K291A KLHDC2^SBD with PROTAC-BRD3^BD2
[2] = target: R56A KLHDC2^SBD / BRD3^BD2 (Homo sapiens, UniProt Q15059+Q9Y2U9, R56A); experiment: ITC, ternary complex R56A KLHDC2^SBD with PROTAC-BRD3^BD2
Chain of R56A KLHDC2^SBD / BRD3^BD2 (Q9Y2U9 15-361 R56A): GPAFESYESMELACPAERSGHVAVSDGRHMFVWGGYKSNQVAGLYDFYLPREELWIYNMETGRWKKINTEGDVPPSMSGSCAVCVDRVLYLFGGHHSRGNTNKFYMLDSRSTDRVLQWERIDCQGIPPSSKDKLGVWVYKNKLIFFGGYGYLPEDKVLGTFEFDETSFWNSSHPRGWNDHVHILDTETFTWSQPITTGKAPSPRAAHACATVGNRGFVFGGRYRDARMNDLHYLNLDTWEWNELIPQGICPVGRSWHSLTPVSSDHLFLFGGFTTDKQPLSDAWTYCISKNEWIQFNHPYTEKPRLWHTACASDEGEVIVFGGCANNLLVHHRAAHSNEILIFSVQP
Chain of R56A KLHDC2^SBD / BRD3^BD2 (Q15059 306-416): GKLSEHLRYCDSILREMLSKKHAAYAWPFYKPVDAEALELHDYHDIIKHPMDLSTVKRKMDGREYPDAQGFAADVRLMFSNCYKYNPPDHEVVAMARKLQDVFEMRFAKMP

BRD2^BD2 = BRD2^BD2 (Homo sapiens, UniProt P25440); experiment: ITC, binary binding to BRD2^BD2
Chain of BRD2^BD2 (P25440 344-455): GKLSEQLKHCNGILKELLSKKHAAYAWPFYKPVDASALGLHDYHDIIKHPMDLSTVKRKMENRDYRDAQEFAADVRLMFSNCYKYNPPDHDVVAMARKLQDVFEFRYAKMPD

BRD4^BD2 = BRD4^BD2 (Homo sapiens, UniProt O60885); experiment: ITC, binary binding to BRD4^BD2
[3] = target: KLHDC2^SBD / G386E BRD4^BD2 (Homo sapiens, UniProt O60885+Q9Y2U9, G386E); experiment: ITC, ternary complex KLHDC2^SBD with PROTAC-G386E BRD4^BD2
Chain of KLHDC2^SBD / G386E BRD4^BD2 (Q9Y2U9 15-361, other chains not shown): as the sequence (Q9Y2U9 15-361 R56A) above, with A42R counted along it

[4] = target: KLHDC2^SBD / G382E BRD2^BD2 (Homo sapiens, UniProt P25440+Q9Y2U9, G382E); experiment: ITC, ternary complex KLHDC2^SBD with PROTAC-G382E BRD2^BD2
Chain of KLHDC2^SBD / G382E BRD2^BD2 (Q9Y2U9 15-361): as the sequence (Q9Y2U9 15-361 R56A) above, with A42R counted along it
Chain of KLHDC2^SBD / G382E BRD2^BD2 (P25440 344-455 G382E): as the sequence (P25440 344-455) above, with G39E counted along it

[5] = target: neddylated CRL2^KLHDC2 (tetrameric KLHDC2-EloB/C) (Homo sapiens, UniProt Q15059+Q9Y2U9); experiment: Ubiquitylation assay monitoring disruption of the KLHDC2-EloBC tetrameric assembly
KLHDC2^SBD / BRD3^BD2 = KLHDC2^SBD / BRD3^BD2 (Homo sapiens, UniProt Q15059+Q9Y2U9); experiment: ITC, ternary complex KLHDC2^SBD with PROTAC-BRD3^BD2
Chain of KLHDC2^SBD / BRD3^BD2 (Q9Y2U9 15-361): as the sequence (Q9Y2U9 15-361 R56A) above, with A42R counted along it
Chain of KLHDC2^SBD / BRD3^BD2 (Q15059 306-416): as the sequence (Q15059 306-416) above

BRD2 = BRD2 (Homo sapiens, UniProt P25440); experiment: Western blot of BRD2 levels after cellular dosing
Chain of BRD2 (P25440 whole entry): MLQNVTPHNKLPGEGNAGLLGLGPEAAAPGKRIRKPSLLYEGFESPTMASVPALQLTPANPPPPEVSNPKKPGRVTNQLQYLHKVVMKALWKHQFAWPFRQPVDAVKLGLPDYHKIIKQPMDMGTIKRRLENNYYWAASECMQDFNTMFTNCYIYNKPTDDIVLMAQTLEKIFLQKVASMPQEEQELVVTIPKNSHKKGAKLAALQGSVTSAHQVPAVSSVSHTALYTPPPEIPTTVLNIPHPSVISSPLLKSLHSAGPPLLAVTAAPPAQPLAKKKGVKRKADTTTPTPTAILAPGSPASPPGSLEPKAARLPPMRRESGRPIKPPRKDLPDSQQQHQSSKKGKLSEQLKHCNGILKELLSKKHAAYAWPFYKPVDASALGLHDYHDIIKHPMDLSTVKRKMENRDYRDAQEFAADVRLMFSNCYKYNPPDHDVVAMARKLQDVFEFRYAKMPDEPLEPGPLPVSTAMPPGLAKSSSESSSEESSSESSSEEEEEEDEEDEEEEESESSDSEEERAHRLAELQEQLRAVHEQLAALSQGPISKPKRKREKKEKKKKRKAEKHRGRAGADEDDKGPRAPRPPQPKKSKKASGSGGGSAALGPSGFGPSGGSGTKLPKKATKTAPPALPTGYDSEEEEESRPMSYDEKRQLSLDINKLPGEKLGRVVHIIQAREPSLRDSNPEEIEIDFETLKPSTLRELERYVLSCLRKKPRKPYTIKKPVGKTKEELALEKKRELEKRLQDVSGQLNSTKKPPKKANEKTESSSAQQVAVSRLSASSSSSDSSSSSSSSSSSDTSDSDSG

[6] = ITC source data Fig4f, N=1, syringe K291A KLHDC2, cell SJ46421-BRD3BD2
[7] = ITC, syringe K291A KLHDC2, cell compound-BRD3BD2, N=1
[8] = cell: SJ46421-BRD3^BD2, syringe: K291A KLHDC2^SBD, n=1
[9] = cell: SJ46421-BRD3^BD2, syringe: R56A KLHDC2^SBD
[10] = cell: SJ46421, syringe: BRD2^BD2
[11] = ITC, syringe BRD4BD2, cell compound, Rep1, Rep2
[12] = cell: SJ46421, syringe: BRD4^BD2
[13] = cell: SJ46421-G386E BRD4^BD2, syringe: KLHDC2^SBD
[14] = cell: SJ46421-G382E BRD2^BD2, syringe: KLHDC2^SBD
[15] = cell: PROTAC-BRD3^BD2, syringe: KLHDC2^SBD

Chain of K291A KLHDC2^SBD / BRD3^BD2 (Q9Y2U9 15-361 K291A): as the sequence (Q9Y2U9 15-361 R56A) above, with A42R, K277A counted along it
Chain of K291A KLHDC2^SBD / BRD3^BD2 (Q15059 306-416): as the sequence (Q15059 306-416) above

## Cc1sc2c(c1C)C(c1ccc(Cl)cc1)=N[C@@H](CC(=O)N1CCN(CCOc3cccc4ccc(-c5nc(CC(=O)NCC(=O)O)cs5)cc34)CC1)c1nnc(C)n1-2 [SJ46421]
[1]
  Kd: 25.6 nM
[1]; [6]
  (-)TDS, Rep1: -5.73
  DG, Rep1: -10.6
  DH, Rep1: -4.87
[1]; [7]
  (-)TDS: -5.73
  DG: -10.6
  DH: -4.87
[1]; K291A KLHDC2^SBD, estimated from the binding affinity of SJ46421 to WT KLHDC2
  cooperativity α: 11.9
[1]; [8]
  ITC -TΔS (ternary): -5.73 kcal/mol-1
  ITC N (ternary): 0.9
  ITC ΔG (ternary): -10.6 kcal/mol-1
  ITC ΔH (ternary): -4.87 kcal/mol-1
[2]; BRD3^BD2, R56A KLHDC2^SBD
  cooperativity α: 1.7
[2]; Kd, Rep1/Rep2, ITC source data Fig4f, syringe R56A KLHDC2, cell SJ46421-BRD3BD2
  Kd: 291 nM and 255 nM
[2]; [9]
  ITC -TΔS (ternary): -5.02 +/- 0.31 kcal/mol-1
  ITC N (ternary): 1.1
  ITC ΔG (ternary): -9.19 +/- 0.03 kcal/mol-1
  ITC ΔH (ternary): -3.68 +/- 0.03 kcal/mol-1
BRD2^BD2; ITC Kd, cell: SJ46421, syringe: BRD2^BD2
  Kd: 2140 ± 306 nM
BRD2^BD2; ITC, syringe BRD2BD2, cell compound, Rep1, Rep2
  (-)TDS: 2.71 and 2.54
BRD2^BD2; Kd, Rep1/Rep2, ITC source data Fig4a, syringe BRD2BD2, cell SJ46421
  Kd: 2290 nM and 1890 nM
BRD2^BD2; [10]
  ITC -TΔS: 2.63 +/- 0.12 kcal/mol-1
  ITC N: 0.9
  ITC ΔH: -10.5 +/- 0.45 kcal/mol-1
BRD4^BD2; [11]
  (-)TDS: 1.81 and 1.64
  DH: -9.89
BRD4^BD2; Kd, Rep1/Rep2, ITC source data Fig4a, syringe BRD4BD2, cell SJ46421
  Kd: 1080 nM and 958 nM
BRD4^BD2; [12]
  ITC -TΔS: 1.73 +/- 0.14 kcal/mol-1
  ITC N: 0.9
[3]; G386E BRD4^BD2, KLHDC2^SBD
  cooperativity α: 13 and 12.7
[3]; Kd, Rep1/Rep2, ITC source data Fig4f, syringe KLHDC2, cell SJ46421-G386EBRD4BD2
  Kd: 23.4 nM and 25.9 nM
[3]; [13]
  ITC -TΔS (ternary): -1.30 +/- 0.11 kcal/mol-1
  ITC N (ternary): 0.9
  ITC ΔG (ternary): -10.6 +/- 0.04 kcal/mol-1
  ITC ΔH (ternary): -9.05 +/- 0.37 kcal/mol-1
[4]; G382E BRD2^BD2, KLHDC2^SBD
  cooperativity α: 3.2
[4]; ITC, syringe KLHDC2, cell compound-G382EBRD2BD2, Rep1, Rep2
  (-)TDS: 0.62 and 0.68
[4]; Kd, Rep1/Rep2, ITC source data Fig4f, syringe KLHDC2, cell SJ46421-G382EBRD2BD2
  Kd: 103 nM and 88.1 nM
[4]; [14]
  ITC -TΔS (ternary): 0.65 +/- 0.07 kcal/mol-1
  ITC N (ternary): 0.9
  ITC ΔG (ternary): -9.80 +/- 0.02 kcal/mol-1
  ITC ΔH (ternary): -10.5 +/- 0.11 kcal/mol-1
[5]; Monomer, + BRD3-SJ46421, pre-incubation 0
  KLHDC2~UB level, Rep1/Rep2: 0.5851 and 0.3857
[5]; Tetramer, + BRD3-SJ46421, pre-incubation 0
  KLHDC2~UB level, Rep1/Rep2: 67.2962 and 61.2938
[5]; Tetramer, + BRD3-SJ46421, pre-incubation 2
  KLHDC2~UB level, Rep1/Rep2: 32.2274 and 23.9384
[5]; Tetramer, + BRD3-SJ46421, pre-incubation 5
  KLHDC2~UB level, Rep1/Rep2: 1.6168 and 2.133
KLHDC2^SBD / BRD3^BD2; BRD3^BD2
  ΔG (binary + ternary): -19.9 kcal/mol
KLHDC2^SBD / BRD3^BD2; BRD3^BD2, KLHDC2^SBD
  cooperativity α: 16
KLHDC2^SBD / BRD3^BD2; ITC, syringe KLHDC2, cell BRD3BD2-compound (printed BRD2BD3 for SJ46421), Rep1, Rep2
  (-)TDS: 1.05
KLHDC2^SBD / BRD3^BD2; [15]
  ITC N (ternary): 0.9
  ITC ΔG (ternary): -10.8 +/- 0.01 kcal/mol-1
  ITC ΔH (ternary): -6.65 +/- 0.79 kcal/mol-1
BRD2; Fig 6b, KO/Rescue, 5 uM
  BRD2 level, Western blot quantification (DMSO = 100): 112.267 and 101.949
BRD2; Fig 6b, U2OS, 5 uM
  BRD2 level, Western blot quantification (DMSO = 100): 136.72 and 118.225
BRD2; Fig S6a, 293T cells, 2.5 uM
  BRD2 level, Western blot quantification (DMSO = 100): 72.5135 and 88.7213
BRD2; Fig S6a, 293T cells, 5 uM
  BRD2 level, Western blot quantification (DMSO = 100): 75.5009 and 85.1412
BRD2; Fig S6b, MDA-MB468 Cells, 10 uM
  BRD2 level, Western blot quantification (DMSO = 100): 62.2331 and 83.5917
